The conditions of this series: from CC(C)[C@H](NC(=O)CC(Sc1ccccc1)[C@H](COC(=O)[C@@H](N)Cc1ccc(O[Si](C)(C)C(C)(C)C)cc1)NC(=O)OC(C)(C)C)C(=O)O; amide bond; FDPP; DMF; 6.97 mM; 20.0 °C; 8.0 h.

In patent publication US20210253642A1, “CALPAIN MODULATORS AND THERAPEUTIC USES THEREOF BACKGROUND” (Blade Therapeutics, Inc., priority 2018, published 2021) one finds ring closure, yield of all isomers data, which are given here for one compound.

For `CC(C)[C@@H]1NC(=O)CC(Sc2ccccc2)[C@@H](NC(=O)OC(C)(C)C)COC(=O)[C@H](Cc2ccc(O[Si](C)(C)C(C)(C)C)cc2)NC1=O` (stereo partly shown), the ring closure, yield of all isomers came to 39.4%.
